US20090010880A1 (priority 2007, published 2009)
Values after ≈ are worked out from the molar mass of the structure shown. Read-outs that look alike come from different tables or passages of the source.

Experiments:
[1] = test system: BVDV (Bovine Viral Diarrhea Virus); assay: microbe, parasite or virus in culture; type: cell-based; settings: for inhibition of virus yield: 6-25 μg/ml, 24 and 48 hours post infection
[2] = test system: BVDV (Bovine Viral Diarrhea Virus); assay: Cytopathic Effect Assay (CPEA) / cell viability, BVDV in MDBK cells; settings: for EC50: Bovine viral diarrhea virus isolates and strains, MDBK
[3] = Cytotoxicity (CC50) in BHK cells; type: cell-based; settings: hamster
[4] = test system: MDBK (Madin-Darby Bovine Kidney) cells; assay: Cytotoxicity / cell viability in MDBK cells; type: cell-based
[5] = Cytotoxicity / cell viability in MDBK cells; type: cell-based, Bovine; settings: bovine, MDBK cells
[6] = test system: viral protein NS3; assay: Western blot analysis of viral NS3 protein; type: cell-based, Bovine Viral Diarrhea Virus; settings: 25 μg/ml, 24 hours post infection, MOI of 10
Method: MDBK cells were infected with NADL strain of BVDV (MOI 10) in the presence or absence of 25 μg/ml of geneticin. Based on previous publications, the 18-24 h post-infection time point was chosen to determine viral proteins in infected cells. […] Thus, at 24 h post-infection, cell media was removed and cells were washed several times with PBS. Then, 2× concentrated electrophoresis sample buffer was added, cells were scraped from the dish and transferred to a microcentrifuge tube. To reduce viscosity, the samples were sonicated briefly or passed several times through a 26-gauge needle and boiled for 5 min. Fifteen micrograms of lysate sample were run on 10% SDS-PAGE and then transblotted. After blocking for 1 h in blocking buffer (5% dry milk in 0.05% Tween 20 in PBS), membranes were incubated with primary antibody (MAb 20.10.6) diluted 1:1,000 in blocking buffer for 60 min at room temperature and washed with 0.05% Tween 20 in PBS. After incubation with secondary antibody (anti-mouse IgG-HRP; Sigma) diluted 1:200 in blocking buffer for 60 min at room temperature, NS3 was detected with the Amersham ECL kit according to the manufacturer's instructions (Amersham Biosciences, Piscataway, N.J., USA).

[7] = test system: DV (Dengue Virus); assay: Yield Reduction Assay (YRA), Dengue virus in BHK cells; type: cell-based
[8] = test system: DV (Dengue Virus); assay: Cytopathic Effect Assay (CPEA), Dengue virus in BHK cells; type: cell-based
[9] = test system: YFV (Yellow Fever Virus); assay: microbe, parasite or virus in culture; type: cell-based; settings: read-out: CPEA EC50
[10] = test system: BVDV (Bovine Viral Diarrhea Virus); assay: Cytopathic Effect Assay (CPEA), BVDV in BND cells; type: cell-based; settings: Bovine viral diarrhea virus isolates and strains
[11] = test system: YFV (Yellow Fever Virus); assay: microbe, parasite or virus in culture; type: cell-based; settings: read-out: YRA EC50
[12] = Cytotoxicity (CC50) in BND cells; type: cell-based, Bottle Nose Dolphin; settings: bottlenose dolphin, BND skin cells
[13] = test system: BVDV; assay: Antiviral activity against BVDV (structure-function analysis); type: cell-based, Bovine Viral Diarrhea Virus

## CN[C@@H]1[C@@H](O)[C@@H](O[C@@H]2[C@@H](O)[C@H](O[C@H]3O[C@H]([C@@H](C)O)[C@@H](O)[C@H](O)[C@H]3N)[C@@H](N)C[C@H]2N)OC[C@]1(C)O [Geneticin]
[1]
  viral production: below 10 % of control
[1]; Bovine viral diarrhea virus isolates and strains, MDBK, BVDV, MDBK cells, read-out: YRA EC50
  EC50: ~4 µg/mL (≈ 8.06 µM)
[1]; NADL strain
  inhibition of virus yield: 10-100 fold
[1]; NY-1 strain
  inhibition of virus yield: 10-100 fold
[2]; read-out: CPEA EC50, BVDV, MDBK cells
  EC50: ~4 µg/mL (≈ 8.06 µM)
[2]; read-out: EC50 concentration for antiBVDV activity, BVDV
  EC50: 4 µg/mL (≈ 8.06 µM)
[3]
  CC50: 160 µg/mL (≈ 322 µM)
[4]; 31-250 μg/ml, 72 hours
  MDBK cell viability (uninfected): no effect
[4]; high doses
  concentration with cell toxicity (downward curve of cell viability): above 400 μg/ml
[5]
  CC50: 400 µg/mL (≈ 806 µM)
[6]
  synthesis of the viral protein NS3: no effect
[7]
  EC50: 5 µg/mL (≈ 10.1 µM)
[8]
  EC50: 4 µg/mL (≈ 8.06 µM)
[9]
  EC50: 20 µg/mL (≈ 40.3 µM)
[10]
  EC50: 50 µg/mL (≈ 101 µM)
[11]
  EC50: 10 µg/mL (≈ 20.1 µM)
[12]
  CC50: > 2000 µg/mL

## CC(=O)O[C@H]1C[C@@]2(C)[C@@H](C[C@@H](O)[C@H]3[C@@]4(C)CC[C@@H](O)[C@@H](C)[C@@H]4CC[C@@]32C)/C1=C(\CCC=C(C)C)C(=O)O [fusidic acid]
[13]
  antiviral activity against BVDV: inactive

## NC[C@@H]1O[C@H](O[C@H]2[C@@H](O)[C@H](O[C@@H]3[C@@H](O)[C@H](N)C[C@H](N)[C@H]3O[C@H]3O[C@H](CO)[C@@H](O)[C@H](O)[C@H]3N)O[C@@H]2CO)[C@H](N)[C@@H](O)[C@@H]1O [paromomycin]
[13]
  antiviral activity against BVDV: no antiviral activity

## gentamicin
[2]; NADL, MDBK cells, 12 μg/ml per drug
  cell viability of cpBVDV-infected cells (cytoprotection against NADL): decreased the cell viability
